Experimental data published in patent US20040248991A1, “Compositions for lessening oxidative stress” (priority 2001, published 2004).

Key:
urinary 8OH-dG [1] = assay: Oxidative stress lessening effect on spontaneously diabetic mouse (urinary 8OH-dG); assay type: in vivo; details: KK-Ay mice, 4 weeks
Method: (§1) The effect of lessening oxidative stress in vivo was evaluated with urinary 8-hydroxydeoxyguanosine (8OH-dG) having high effectiveness as an oxidative stress marker. This material results from nucleic acid damage due to oxidative stress, and is discharged into urine without undergoing further metabolism. It is thus thought that the amount of oxidative stress in vivo and the amount of 8OH-dG discharged have a close relationship therebetween. A decrease in amount of the material in urine means a reduction in oxidative stress in vivo and the prevention of damage to nucleic acid.
The dose dependency of the oxidative stress lessening effect of each of reduced and oxidized coenzyme Q10 was evaluated by the same method as that used for GK rats except that KK-Ay mice with spontaneous diabetes and having a higher blood sugar level than that of GK rats were used. KK-Ay 5-week old male mice were used, and evaluated in groups in each of which n=11. Oxidized coenzyme Q10 or reduced coenzyme Q10 (containing about 2% by weight of oxidized coenzyme Q10) was mixed with a purified feed (produced by CLEA JAPAN, INC.) at each of ratios of 0.02% by weight, 0.1% by weight, and 0.5% by weight, and each mixture was freely given to the KK-Ay mice. In a control group, the purified feed not containing coenzyme Q10 was freely given to rats. 4 weeks after the supply, urine was collected, and the amount of urinary 8OH-dG was determined by the same method as in Example 1. […] In the reduced coenzyme Q10 administration group, with a dose of 0.02% by weight, the lessening effect was low (82% of the control group), while with a dose of 0.1% by weight or more, the lessening effect was significant (dose of 0.1% by weight: 73% of the control group, dose of 0.5% by weight: 56% of the control group). In the oxidized coenzyme Q10 administration group, the dose-dependent lessening effect was observed without showing a significant difference, and with a dose of 0.5% by weight, the amount of urinary 8OH-dG was 78% of that of the control group.

urinary 8OH-dG [2] = assay: Oxidative stress lessening effect on spontaneously diabetic rat (urinary 8OH-dG); assay type: in vivo; details: GK rats, 0.1% by weight in feed
Method: as §1
The oxidative stress lessening effect of each of reduced and oxidized coenzyme Q10 in vivo was evaluated by using GK rats with spontaneous diabetes which induced spleen tissue denaturation due to oxidative stress in vivo. A feed (CE-2, produced by CLEA JAPAN, INC.) containing 0.1% by weight of reduced coenzyme Q10 (containing about 2% by weight of oxidized coenzyme Q10) or oxidized coenzyme Q10 was freely given to GK rats (5-week old, male, n=4 in each group). In a control group, the feeds not containing coenzyme Q10 was freely given to the rats. 2 weeks and 4 weeks after, urine was collected, and the amount of urinary 8OH-dG was determined by the same method as in Example 1. […] In the oxidized coenzyme Q10 administration group, the amount of urinary 8OH-dG measured 2 weeks after the administration was decreased to 58% of the control group, and the amount of urinary 8OH-dG measured 4 weeks after the administration was deceased to 52% of the control group.
The oxidative stress lessening effect of a typical antioxidant, vitamin E, was evaluated by using GK rats in the same test system as in Example 2. Like coenzyme Q10, vitamin E was mixed with a feed at a ratio of 0.1% by weight, and the resulting foodstuff was freely given to the GK rats. 2 weeks and 4 weeks after the feeding, the amount of urinary 8OH-dG was determined. […] In comparison to the coenzyme Q10 administration group of Example 2, 2 weeks after, the decreasing effect in Reference Example 1 was lower the effects of both the reduced form and the oxidized form in Example 2, and 4 weeks after, the effect was at the same level as that of the oxidized coenzyme Q10 and lower than that of the reduced coenzyme Q10 in Example 2.

urinary 8OH-dG [3] = assay: Oxidative stress lessening effect on normal rat (urinary 8OH-dG by ELISA); assay type: in vivo; details: SD rats, oral soybean oil solution, 100 mg/kg/day for 4 weeks
Method: as §1
A soybean oil solution of oxidized coenzyme Q10 or reduced coenzyme Q10 (containing about 2% of oxidized coenzyme Q10) was orally administered to SD rats (6-week old, male) in a dose of 100 mg/kg/day for 4 weeks. 4 weeks after, urine was collected, and the amount of urinary 8OH-dG was determined by an ELISA kit (Japan Institute for the Control of Aging).

[4] = test system: spleen tissues of GK rats; assay: Tissue protecting effect on spontaneously diabetic rat (histopathological evaluation of spleen tissue denaturation); assay type: in vivo; details: oral administration for 7 weeks, spleen histopathology, four examples per group
Method: The protective effect of each of oxidized coenzyme Q10 and reduced coenzyme Q10 (containing about 2% by weight of oxidized coenzyme Q10) on denaturation of the spleen tissues of GK rats by using the same test system as in Example 1. As a control, a soybean oil solution not containing coenzyme Q10 was orally administered. After the coenzyme Q10 was administered for 7 weeks, the spleen was extracted from each rat, and the degree of tissue denaturation was histopathologically evaluated.
The tissue protecting effect of vitamin E was evaluated by the same method as in Example 4.

[5] = cited from earlier work
rats = details: continuous administration, 1200 mg/kg/day for 52 weeks; cited from earlier work
kidney dialysis patients = details: daily dose of 800 IU; cited from earlier work
[6] = 2 weeks after the administration
[7] = 4 weeks after the administration
[8] = listed as Oxidized coenzyme Q10

| Molecule | amount of urinary 8OH-dG relative to control group (urinary 8OH-dG [1]; 0.02% by weight in feed) [%] | amount of urinary 8OH-dG relative to control group (urinary 8OH-dG [1]; 0.1% by weight in feed) [%] | amount of urinary 8OH-dG relative to control group (urinary 8OH-dG [1]; 0.5% by weight in feed) [%] | amount of urinary 8OH-dG relative to control group (assumed as 100%) (urinary 8OH-dG [2]; [6]) | amount of urinary 8OH-dG relative to control group (assumed as 100%) (urinary 8OH-dG [2]; [7]) | amount of urinary 8OH-dG relative to solvent control group (assumed as 100%) (urinary 8OH-dG [3]) | Number of examples with finding: Islet fibrillation 1+ [4] | Number of examples with finding: Islet fibrillation 2+ [4] | Number of examples with finding: Normal [4] | Number of examples with finding: Islet fibrillation 1+ ([4]; listed as Reduced coenzyme Q10) | Number of examples with finding: Islet fibrillation 2+ ([4]; listed as Reduced coenzyme Q10) | antioxidative activity in vitro [5] | Number of examples with finding: Islet fibrillation 1+ [4, 8] | Number of examples with finding: Islet fibrillation 2+ [4, 8] | toxic effect in chronic toxicity test (rats) | Number of examples with finding: Islet fibrillation 1+ ([4]; listed as VE) | Number of examples with finding: Islet fibrillation 2+ ([4]; listed as VE) | increase of risk of brain hemorrhage as a side effect (kidney dialysis patients) [%] | patients died from hemorrhagic diseases (kidney dialysis patients) |
| --- | --- | --- | --- | --- | --- | --- | --- | --- | --- | --- | --- | --- | --- | --- | --- | --- | --- | --- | --- |
| COc1c(O)c(C)c(C/C=C(\C)CC/C=C(\C)CC/C=C(\C)CC/C=C(\C)CC/C=C(\C)CC/C=C(\C)CC/C=C(\C)CC/C=C(\C)CC/C=C(\C)CCC=C(C)C)c(O)c1OC [reduced coenzyme Q10] | 82 | 73 | 56 | about 40% | kept at the same level | about 40% | tree | one | 0 | 3 | 1 | exhibits antioxidative activity in vitro | – | – | – | – | – | – | – |
| COC1=C(OC)C(=O)C(C/C=C(\C)CC/C=C(\C)CC/C=C(\C)CC/C=C(\C)CC/C=C(\C)CC/C=C(\C)CC/C=C(\C)CC/C=C(\C)CC/C=C(\C)CCC=C(C)C)=C(C)C1=O [oxidized coenzyme Q10] | – | – | 78 | 58% | 52% | about 60% | two | two | 0 | – | – | exhibits no antioxidative activity | 2 | 2 | – | – | – | – | – |
| COC1=C(OC)C(=O)C(C/C=C(\C)CC/C=C(\C)CC/C=C(\C)CC/C=C(\C)CC/C=C(\C)CC/C=C(\C)CC/C=C(\C)CC/C=C(\C)CC/C=C(\C)CCC=C(C)C)=C(C)C1=O [coenzyme Q10] | – | – | – | – | – | – | – | – | – | – | – | – | – | – | no toxic effect was observed | – | – | – | – |
| vitamin E [reference compound] | – | – | – | about 80% | 51% | – | two | two | 0 | – | – | – | – | – | – | 2 | 2 | 63 | two |
